Results taken from DBAASP.
Converted amounts (≈) assume the structure as drawn. One block for each molecule: values may come before it.

Legend:
Assay in all cases: ≥ marks a high value that may be exact or a test limit, other limits are often not marked, values filed in µg/mL are converted to µM
[1] = tested on: Streptococcus agalactiae BCRC 10787
Vibrio vulnificus 204 = tested on: Vibrio vulnificus 204
Vibrio alginolyticus = tested on: Vibrio alginolyticus
[2] = tested on: Streptococcus agalactiae 819
[3] = tested on: Enterococcus faecalis BCRC 10066
[4] = tested on: Aeromonas hydrophila BCRC 13018
[5] = tested on: Pseudomonas aeruginosa ATCC 19660
[6] = tested on: Micrococcus luteus BCRC 11034
[7] = tested on: Staphylococcus sp. BCRC 10451
[8] = tested on: Vibrio harveyi BCRC 13812
Pseudomonas aeruginosa = tested on: Pseudomonas aeruginosa
[9] = tested on: Streptococcus pneumoniae BCRC 10794
Staphylococcus aureus = tested on: Staphylococcus aureus
[10] = tested on: Staphylococcus aureus BCRC 10780
Streptococcus agalactiae = tested on: Streptococcus agalactiae
Escherichia coli = tested on: Escherichia coli
Bacillus anthracis = tested on: Bacillus anthracis
Bacillus cereus = tested on: Bacillus cereus
[11] = tested on: Escherichia coli KCTC 1682
[12] = tested on: Staphylococcus aureus RN4220
[13] = tested on: Malassezia sympodialis ATCC 42132
Escherichia coli K-12 = tested on: Escherichia coli K-12
Candida albicans CA14 = tested on: Candida albicans CA14
[14] = tested on: Saccharomyces cerevisiae BY4741
[15] = tested on: Salmonella typhimurium KCTC 1926
[16] = tested on: Bacillus subtilis KCTC 3068
[17] = tested on: Pseudomonas aeruginosa KCTC 1637
[18] = tested on: Staphylococcus epidermidis KCTC 1917
Bacillus subtilis 168 = tested on: Bacillus subtilis 168
[19] = tested on: Staphylococcus aureus KCTC 1621
[20] = tested on: Lacticaseibacillus casei ATCC 4646
[21] = tested on: Veillonella atypica PK1910
Streptococcus mutans = tested on: Streptococcus mutans
[22] = tested on: Streptococcus mitis ATCC 903
[23] = tested on: Streptococcus gordonii Challis DL1
[24] = tested on: Streptococcus sanguinis NY101

Compound: CC(C)C[C@H](NC(=O)[C@H](Cc1ccccc1)NC(=O)[C@@H]1CCCN1C(=O)[C@H](Cc1ccccc1)NC(=O)[C@@H](NC(=O)[C@H](Cc1ccccc1)NC(=O)[C@H](CC(C)C)NC(=O)[C@@H](NC(=O)[C@H](CCCCN)NC(=O)[C@@H](NC(=O)[C@H](CCCCN)NC(=O)[C@H](CCCCN)NC(=O)[C@H](C)NC(=O)CNC(=O)[C@H](C)NC(=O)[C@@H](NC(=O)[C@H](CO)NC(=O)[C@@H](NC(=O)CN)C(C)C)C(C)C)C(C)C)C(C)C)C(C)C)C(=O)N[C@@H](Cc1ccccc1)C(=O)O [GVSVAGAKKVKVLFVFPFLF]
MIC (Escherichia coli): > 119 µM
MIC (Bacillus anthracis): ≥ 119 µM
MIC (Staphylococcus aureus): > 119 µM
MIC (Bacillus cereus): ≥ 119 µM

Compound: CC(C)C[C@H](NC(=O)[C@H](CC(C)C)NC(=O)[C@H](Cc1cnc[nH]1)NC(=O)[C@H](Cc1cnc[nH]1)NC(=O)[C@H](CC(C)C)NC(=O)[C@H](CCCCN)NC(=O)[C@H](CCCCN)NC(=O)[C@H](CC(C)C)NC(=O)[C@H](CC(C)C)NC(=O)[C@H](CCCN=C(N)N)NC(=O)[C@H](CCCN=C(N)N)NC(=O)[C@H](Cc1c[nH]c2ccccc12)NC(=O)[C@@H](N)CCCN=C(N)N)C(=O)N[C@@H](Cc1cnc[nH]1)C(=O)NCC(=O)NCC(=O)NCC(=O)N[C@@H](Cc1ccccc1)C(=O)N[C@@H](CCCCN)C(=O)N[C@@H](CCCCN)C(=O)N[C@@H](Cc1ccccc1)C(=O)N[C@@H](Cc1c[nH]c2ccccc12)C(=O)N[C@@H](CCCCN)C(=O)N[C@@H](Cc1c[nH]c2ccccc12)C(=O)N[C@@H](Cc1ccccc1)C(=O)N[C@@H](CCCN=C(N)N)C(=O)N[C@@H](CCCN=C(N)N)C(=O)N[C@@H](Cc1ccccc1)C(N)=O [RWRRLLKKLHHLLHGGGFKKFWKWFRRF]
MIC [20]: 2.14 µM (≈ 8 µg/mL)
MIC [21]: 2.14 µM (≈ 8 µg/mL)
MIC (Streptococcus mutans): 1.51 µM (≈ 5.66 µg/mL)
MIC [22]: 8.57 µM (≈ 32 µg/mL)
MIC [23]: 4.28 µM (≈ 16 µg/mL)
MIC [24]: 4.28 µM (≈ 16 µg/mL)

More lines, now with the values ahead:

MIC [1]: 0.123 µM (≈ 0.31 µg/mL)
MIC (Vibrio vulnificus 204): 0.245 µM (≈ 0.62 µg/mL)
MIC (Vibrio alginolyticus): 0.49 µM (≈ 1.24 µg/mL)
MIC [2]: 3.91 µM (≈ 9.89 µg/mL)
MIC [3]: 3.91 µM (≈ 9.89 µg/mL)
MIC [4]: 7.82 µM (≈ 19.8 µg/mL)
MIC [5]: 7.82 µM (≈ 19.8 µg/mL)
Compound: CC[C@H](C)[C@H](NC(=O)[C@H](C)NC(=O)[C@H](CCCN=C(N)N)NC(=O)[C@H](Cc1cnc[nH]1)NC(=O)[C@@H](NC(=O)[C@H](C)NC(=O)[C@H](CCCN=C(N)N)NC(=O)[C@@H](NC(=O)CNC(=O)[C@H](Cc1cnc[nH]1)NC(=O)[C@H](CO)NC(=O)[C@@H](NC(=O)[C@H](Cc1c[nH]c2ccccc12)NC(=O)CNC(=O)[C@@H](NC(=O)[C@@H](NC(=O)[C@H](Cc1cnc[nH]1)NC(=O)[C@H](Cc1cnc[nH]1)NC(=O)[C@@H](NC(=O)[C@@H](N)Cc1ccccc1)[C@@H](C)CC)[C@@H](C)CC)[C@@H](C)CC)[C@@H](C)CC)C(C)C)[C@@H](C)CC)C(=O)N[C@@H](Cc1cnc[nH]1)C(=O)NCC(N)=O [FIHHIIGWISHGVRAIHRAIHG]

MIC [6]: 2.68 µM (≈ 6.36 µg/mL)
MIC (Vibrio vulnificus 204): 21.4 µM (≈ 50.9 µg/mL)
MIC (Vibrio alginolyticus): 2.68 µM (≈ 6.36 µg/mL)
MIC [7]: 2.68 µM (≈ 6.36 µg/mL)
MIC [8]: 2.68 µM (≈ 6.36 µg/mL)
MIC (Pseudomonas aeruginosa): 5.35 µM (≈ 12.7 µg/mL)
MIC [9]: 21.4 µM (≈ 50.9 µg/mL)
MIC (Staphylococcus aureus): 5.35 µM (≈ 12.7 µg/mL)
MIC [10]: 21.4 µM (≈ 50.9 µg/mL)
MIC (Streptococcus agalactiae): ≥ 42.8 µM
Compound: CC[C@H](C)[C@H](NC(=O)[C@H](CCSC)NC(=O)[C@H](CCCCN)NC(=O)CNC(=O)[C@H](C)NC(=O)[C@H](Cc1cnc[nH]1)NC(=O)[C@H](Cc1ccccc1)NC(=O)[C@H](CC(C)C)NC(=O)CNC(=O)[C@H](CCCCN)NC(=O)[C@@H](NC(=O)[C@@H](NC(=O)[C@H](Cc1cnc[nH]1)NC(=O)[C@H](Cc1ccccc1)NC(=O)[C@@H](NC(=O)[C@H](Cc1ccccc1)NC(=O)CNC(C)=O)[C@@H](C)CC)[C@@H](C)CC)[C@@H](C)CC)C(=O)N[C@@H](Cc1cnc[nH]1)C(=O)NCC(=O)N[C@@H](CC(C)C)C(=O)N[C@H](C(N)=O)C(C)C [GFIFHIIKGLFHAGKMIHGLV]

MIC [11]: 16 µM (≈ 35.3 µg/mL)
MIC [12]: 10 µM (≈ 22.1 µg/mL)
MIC [13]: 4.98 µM (≈ 11 µg/mL)
MIC (Escherichia coli K-12): 10 µM (≈ 22.1 µg/mL)
MIC (Candida albicans CA14): 10 µM (≈ 22.1 µg/mL)
MIC [14]: 10 µM (≈ 22.1 µg/mL)
MIC [15]: 4 µM (≈ 8.83 µg/mL)
MIC [16]: 4 µM (≈ 8.83 µg/mL)
MIC [17]: 8 µM (≈ 17.7 µg/mL)
MIC [18]: 8 µM (≈ 17.7 µg/mL)
MIC (Bacillus subtilis 168): 10 µM (≈ 22.1 µg/mL)
MIC [19]: 4 µM (≈ 8.83 µg/mL)
Compound: CC[C@H](C)[C@H](NC(=O)[C@H](CCCN=C(N)N)NC(=O)[C@H](CCCN=C(N)N)NC(=O)[C@H](CCCN=C(N)N)NC(=O)[C@H](CC(C)C)NC(=O)[C@@H](NC(=O)[C@@H](NC(=O)[C@H](CC(C)C)NC(=O)[C@@H](N)CC(C)C)[C@@H](C)CC)[C@@H](C)CC)C(=O)N[C@@H](CCCN=C(N)N)C(=O)N[C@@H](CCCCN)C(=O)N[C@@H](CCC(N)=O)C(=O)N[C@@H](C)C(=O)N[C@@H](Cc1cnc[nH]1)C(=O)N[C@@H](C)C(=O)N[C@@H](Cc1cnc[nH]1)C(=O)N[C@@H](CO)C(=O)N[C@@H](CCCCN)C(N)=O [LLIILRRRIRKQAHAHSK]
